Tests used:
MIA PaCa-2 = experiment: Cytotoxicity against human MIA PaCa-2 cells expressing CD73 assessed as reduction in cell viability by CCK8 assay; assay type: functional, cell-based
[1] = target: T1, Ectonucleoside triphosphate diphosphohydrolase 1 (Mus musculus, UniProt P55772); experiment: Inhibition of mouse CD39
T1 sequence (P55772 whole entry): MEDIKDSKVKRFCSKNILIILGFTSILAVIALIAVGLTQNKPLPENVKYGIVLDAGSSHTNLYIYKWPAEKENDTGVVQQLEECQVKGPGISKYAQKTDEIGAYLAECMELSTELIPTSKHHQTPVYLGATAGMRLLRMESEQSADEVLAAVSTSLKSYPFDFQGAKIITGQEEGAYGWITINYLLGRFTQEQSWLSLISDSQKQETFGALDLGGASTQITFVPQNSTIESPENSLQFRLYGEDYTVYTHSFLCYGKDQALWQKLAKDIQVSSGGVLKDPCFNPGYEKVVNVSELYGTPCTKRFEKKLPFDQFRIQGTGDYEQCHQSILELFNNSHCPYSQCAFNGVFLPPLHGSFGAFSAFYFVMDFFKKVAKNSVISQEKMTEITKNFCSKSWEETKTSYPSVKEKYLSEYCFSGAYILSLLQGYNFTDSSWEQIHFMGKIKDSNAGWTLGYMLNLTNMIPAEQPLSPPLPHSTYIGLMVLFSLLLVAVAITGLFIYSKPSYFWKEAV

MDA-MB-231 = experiment: Cytotoxicity against human MDA-MB-231 cells expressing CD73 assessed as reduction in cell viability by CCK8 assay; assay type: functional, cell-based
5'-nucleotidase [2] = target: 5'-nucleotidase (Homo sapiens, UniProt P21589); experiment: Inhibition of human CD73
5'-nucleotidase [3] = target: T2, 5'-nucleotidase (Mus musculus, UniProt Q61503); experiment: Inhibition of mouse CD73
T2 sequence (Q61503 whole entry): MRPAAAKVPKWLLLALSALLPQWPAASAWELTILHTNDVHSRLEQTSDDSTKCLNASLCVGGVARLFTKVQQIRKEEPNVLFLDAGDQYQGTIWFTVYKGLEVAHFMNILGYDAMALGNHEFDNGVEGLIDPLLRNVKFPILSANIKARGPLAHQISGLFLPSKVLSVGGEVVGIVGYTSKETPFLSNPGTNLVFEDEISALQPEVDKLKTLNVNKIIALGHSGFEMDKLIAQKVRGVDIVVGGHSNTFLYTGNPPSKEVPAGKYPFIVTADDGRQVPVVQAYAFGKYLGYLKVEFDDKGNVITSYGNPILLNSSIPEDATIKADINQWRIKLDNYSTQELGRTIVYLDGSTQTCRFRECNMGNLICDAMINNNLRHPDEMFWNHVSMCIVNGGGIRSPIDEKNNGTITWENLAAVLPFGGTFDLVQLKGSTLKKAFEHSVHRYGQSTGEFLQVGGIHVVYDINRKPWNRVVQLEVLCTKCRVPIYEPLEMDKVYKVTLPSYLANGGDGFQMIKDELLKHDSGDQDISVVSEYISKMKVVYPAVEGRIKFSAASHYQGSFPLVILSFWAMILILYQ

[4] = Selectivity ratio of IC50 for inhibition of human CD73 to IC50 for inhibition of mouse CD39
[5] = Selectivity ratio of IC50 for inhibition of human CD73 to IC50 for inhibition of mouse CD73

Chain of 5'-nucleotidase (Homo sapiens, UniProt P21589) (P21589 whole entry): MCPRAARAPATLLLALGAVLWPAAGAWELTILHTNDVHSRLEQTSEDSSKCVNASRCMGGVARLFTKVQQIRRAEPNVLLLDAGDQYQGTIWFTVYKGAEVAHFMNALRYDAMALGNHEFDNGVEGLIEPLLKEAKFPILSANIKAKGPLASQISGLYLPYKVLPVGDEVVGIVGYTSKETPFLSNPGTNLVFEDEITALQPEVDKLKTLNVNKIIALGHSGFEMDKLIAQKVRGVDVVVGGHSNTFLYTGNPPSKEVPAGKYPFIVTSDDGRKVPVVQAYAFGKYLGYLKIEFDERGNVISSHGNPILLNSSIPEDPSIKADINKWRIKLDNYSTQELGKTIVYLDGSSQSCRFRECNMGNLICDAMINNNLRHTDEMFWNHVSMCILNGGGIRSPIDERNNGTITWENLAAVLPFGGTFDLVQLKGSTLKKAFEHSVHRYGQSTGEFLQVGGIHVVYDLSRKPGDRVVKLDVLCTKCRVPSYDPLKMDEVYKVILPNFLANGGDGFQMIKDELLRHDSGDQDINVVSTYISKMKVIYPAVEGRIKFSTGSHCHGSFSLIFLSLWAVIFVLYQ

Question: With `C=C(C)[C@@H]1CC[C@]2(CO)CC[C@]3(C)[C@H](CC[C@@H]4[C@@]5(C)CC[C@H](O)C(C)(C)[C@@H]5CC[C@]43C)[C@@H]12` [BETULIN] as the compound, how does the IC50 (MIA PaCa-2) read?
Answer: 95 µM

Question: What about the IC50 [1] of the same compound?
Answer: 49.8 µM

Question: And the IC50 (MDA-MB-231)?
Answer: 24.6 µM

Question: And the IC50 (5'-nucleotidase [2])?
Answer: 22.7 µM

Question: What about the IC50 (5'-nucleotidase [3]) of the same compound?
Answer: 50.3 µM

Question: Which Ratio IC50 [4] does the source give for `O=c1oc2c(O)c(O)cc3c(=O)oc4c(O)c(O)cc1c4c23` [ELLAGIC ACID] here?
Answer: 3.7

Question: What about the IC50 (MIA PaCa-2) of the same compound?
Answer: 150 µM

Question: And the IC50 [1]?
Answer: 0.5 µM

Question: What about the IC50 (MDA-MB-231) of the same compound?
Answer: 27.4 µM

Question: What about the IC50 (5'-nucleotidase [2]) of the same compound?
Answer: 1.85 µM

Question: And the Ratio IC50 [5]?
Answer: 46.5

Question: And the IC50 (5'-nucleotidase [3])?
Answer: 0.04 µM

Question: For `Nc1ccn([C@@H]2O[C@H](CO)[C@@H](O)C2(F)F)c(=O)n1` [GEMCITABINE], which IC50 (MIA PaCa-2) is on record?
Answer: 0.23 µM

Question: What about the IC50 (MDA-MB-231) of the same compound?
Answer: 1.15 µM

Question: Which IC50 (MIA PaCa-2) does the source give for `O=C(OC[C@H]1O[C@@H](OC(=O)c2cc(O)c(O)c(O)c2)[C@H](OC(=O)c2cc(O)c(O)c(O)c2)[C@@H](OC(=O)c2cc(O)c(O)c(O)c2)[C@@H]1OC(=O)c1cc(O)c(O)c(O)c1)c1cc(O)c(O)c(O)c1` [PENTAGALLOYL GLUCOSE] here?
Answer: 72.6 µM

Question: And the IC50 [1]?
Answer: 1.56 µM

Question: And the IC50 (MDA-MB-231)?
Answer: 9.12 µM

Question: What about the IC50 (5'-nucleotidase [2]) of the same compound?
Answer: 10.5 µM

Question: And the IC50 (5'-nucleotidase [3])?
Answer: > 100 µM

Question: Which IC50 [1] does the source give for `Nc1ncnc2c1ncn2[C@@H]1O[C@H](COP(=O)(O)CP(=O)(O)O)[C@@H](O)[C@H]1O` [PHOSPHOMETHYLPHOSPHONIC ACID ADENOSYL ESTER] here?
Answer: > 100 µM

Question: What about the IC50 (5'-nucleotidase [2]) of the same compound?
Answer: 3.97 µM

Question: What about the IC50 (5'-nucleotidase [3]) of the same compound?
Answer: 4.63 µM
